Source: publication PMC6287471 (International Journal for Parasitology: Drugs and Drug …, 2018)
Counter-ions that a name gives are not always drawn.

What was measured:
Type in all cases: cell-based
Hco-ACC-2 W248F = target: T1, Hco-ACC-2 W248F (Haemonchus contortus, UniProt A0A219KWM7, W248F); experiment: Two-electrode voltage clamp of Hco-ACC-2 W248F mutant in Xenopus laevis oocytes
T1 sequence (A0A219KWM7 18-443 W248F): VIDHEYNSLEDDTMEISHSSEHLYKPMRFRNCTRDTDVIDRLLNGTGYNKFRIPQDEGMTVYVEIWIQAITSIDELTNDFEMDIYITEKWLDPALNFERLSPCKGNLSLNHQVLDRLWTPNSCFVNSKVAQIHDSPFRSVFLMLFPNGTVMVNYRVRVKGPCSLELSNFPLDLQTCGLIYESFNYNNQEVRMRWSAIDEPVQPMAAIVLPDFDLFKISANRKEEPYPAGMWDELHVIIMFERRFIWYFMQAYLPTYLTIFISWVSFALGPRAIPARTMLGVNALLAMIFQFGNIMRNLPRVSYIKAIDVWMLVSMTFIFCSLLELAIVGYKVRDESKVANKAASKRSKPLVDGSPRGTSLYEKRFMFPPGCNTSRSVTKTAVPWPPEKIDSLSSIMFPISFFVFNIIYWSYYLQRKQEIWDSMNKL

Hco-ACC-2 F200W = target: T2, Hco-ACC-2 F200W (Haemonchus contortus, UniProt A0A219KWM7, F200W); experiment: Two-electrode voltage clamp of Hco-ACC-2 F200W mutant in Xenopus laevis oocytes
T2 sequence (A0A219KWM7 18-443 F200W): T1 sequence (A0A219KWM7 18-443 W248F)

Hco-ACC-2 F200W/W248F = target: T3, Hco-ACC-2 F200W/W248F (Haemonchus contortus, UniProt A0A219KWM7, F200W/W248F)
T3 sequence (A0A219KWM7 18-443 F200W/W248F): T1 sequence (A0A219KWM7 18-443 W248F)

Hco-ACC-2 F200Y = target: T4, Hco-ACC-2 F200Y (Haemonchus contortus, UniProt A0A219KWM7, F200Y); experiment: Two-electrode voltage clamp of Hco-ACC-2 F200Y mutant in Xenopus laevis oocytes
T4 sequence (A0A219KWM7 18-443 F200Y): T1 sequence (A0A219KWM7 18-443 W248F)

Hco-ACC-2 W248Y = target: T5, Hco-ACC-2 W248Y (Haemonchus contortus, UniProt A0A219KWM7, W248Y); experiment: Two-electrode voltage clamp of Hco-ACC-2 W248Y mutant in Xenopus laevis oocytes
T5 sequence (A0A219KWM7 18-443 W248Y): T1 sequence (A0A219KWM7 18-443 W248F)

[1] = EC50 ± standard error, F200Y, F200Y mutant, n ≥ 5 oocytes

Row | Structure (SMILES) | EC50 (Hco-ACC-2 W248F) [µM] | EC50 (Hco-ACC-2 F200W) [µM] | EC50 (Hco-ACC-2 F200W/W248F) [µM] | EC50 (Hco-ACC-2 F200Y; [1]) [µM] | EC50 (Hco-ACC-2 W248Y) [µM] | EC50 (Hco-ACC-2 F200Y; EC50, F200Y mutant) [µM]
1 | C[N+](C)(C)CCOC(N)=O [Carbachol, Carbamoylcholine Chloride] | > 1000 | 67 ± 4 | > 20000 | 9.7 ± 0.5 | > 1000 | 
2 | C[N+](C)(C)CCO [Choline, Choline Chloride] | > 1000 | 4770 ± 543 | > 20000 | 650 ± 13 | > 1000 | 
3 | c1ccc([C@H]2CN3CCSC3=N2)cc1 [Levamisole, Levamisole Hydrochloride] | > 1000 |  | > 20000 | 39 ± 3 | > 1000 | 
4 | CC(=O)OC(C)C[N+](C)(C)C (stereo not drawn) [Methacholine, Acetyl-β-methylcholine Chloride] | > 1000 | 644 ± 84 | > 20000 | 20 ± 1 | > 1000 | 
5 | CN1CCC[C@H]1c1cccnc1 [Nicotine] |  |  |  |  |  | 277 ± 8
6 | CN1CCCN=C1/C=C/c1cccs1 [Pyrantel, Pyrantel Citrate Salt] | > 1000 | 160 ± 20 | > 20000 | 44 ± 2 | > 1000 | 
7 | CC(C[N+](C)(C)C)OC(N)=O (stereo not drawn) [Urecholine, Carbamyl-β-methylcholine chloride] | > 1000 | 2150 ± 215 | > 20000 | 81 ± 3 | > 1000 | 
